# Laboratory results taken from patent publication US20080221205A1, “FURAN DERIVATIVES FOR PREVENTING AND CURING OSTEOPOROSIS AND PHARMACEUTICAL COMPOSITIONS CONTAINING THE SAME” (priority 2002, published 2008).
# Entries after “also recorded” stand apart in the source; their conditions may differ.
# Columns and labels:
# osteoprotegerin (OPG) = assay: Osteoprotegerin (OPG) expression in MG63 cells, OPG ELISA; format: cell-based, human; conditions: concentration not given
# Experimental: In the following tests, three kinds of cell lines were used. The human osteosarcoma cell lines, MG-63 (ATCC No. CRL-1427) and HOS (ATCC No. CRL-1543), and mouse muscle C2C12 muscle cells (ATCC No. CRL-1772) were purchased from ATCC (American Type Culture Collection, Rockville, USA), and cultured in Dulbecco's modified Eagle's medium (DMEM) supplemented with 10% fetal bovine serum (FBS).
# When MG63 cells grew confluently on 96-well plates, […] of FBS-free DMEM containing various concentrations of the Compound 1 was added to each well. After incubation for 16 hrs, the culture supernatants were collected. The amount of OPG released into the medium was determined using an OPG ELISA kit.
# osteoclasts = assay: Resorption activity of osteoclasts on calcium phosphate-coated plates (resorption pit area); format: cell-based, mice; conditions: concentration not given
# Experimental: In order to investigate the effects of the Compound 1 on differentiation and activity of osteoclasts, when differentiation of osteoclast progenitors was induced, the activity of Tartrate-resistant acid phosphatase (TRAP) as an osteoclastic marker enzyme was investigated, and, when differentiated osteoclasts were cultured on calcium phosphate-coated plates (OAAS, OCT Inc.), resorption activity (formation of resorption pits) were measured.
# First, bone marrow cells were isolated, as follow. After sacrificing 7-9 week female mice by cervical dislocation, femur and tibia were excised aseptically while removing attached soft tissues. After cutting both ends of long bones, 1 ml of an enzyme solution, containing 0.1% collagenase (Gibco), 0.05% trypsin and 0.5 mM EDTA (Gibco), was injected to the bone marrow cavity at one end using a syringe with a 26-guage needle, and bone marrow was then collected. After shaking the recovered bone marrow for 30 min, bone marrow cells were collected, and cultured in α-minimum essential medium (α-MEM) supplemented with 10% FBS for 24 hrs. […]
# The differentiated osteoclasts were cultured on calcium phosphate-coated plates (OAASTM, OCT, Korea) in order to evaluate resorption activity of the cells. […] After washing again with distilled water and drying the plates, the area of formed resorption pits was calculated by means of an Image Pro Plus software. […]
# [1] = test system: ovariectomized white mice; assay: Preventive effect 1 on osteoporosis: tibia histology, oral administration after ovariectomy; format: in vivo; conditions: 10 mg/day, four weeks from ovariectomy, versus untreated control
# Experimental: In order to evaluate effects of the compound of the present invention on treatment and prevention of osteoporosis, female white mice with osteoporosis induced by ovariectomy were used as a disease model. After ovariectomy, mice were administered with the compound of the present invention. Tibias were dissected from the mice, and observed histologically.
# After anesthetizing female white mice with 100 mg/kg of Ketamine (Ketara) and 0.15 ml/kg of 2% Xylazine (Rompun), the lumbar dorsum is shaved bilaterally and the exposed skin was prepared for aseptic surgery by a 10% povidone-iodine scrub followed by a 70% alcohol wipe.
# A 1-cm incision was made in the central region of the abdomen, and the ovary was identified along with the uterus with caution not to damage the main organs such as the liver and diaphragm. After ligating the uterus with a thread for suturing, the exposed ovary was severed toward both sides and removed. Thereafter, each organ was relocated to its original position, and the incision was closed with a thread for suturing in an interrupted pattern. […]
# The daily dosage of the Compound 1 per female white mouse was determined based on 250 g body weight. […] With caution not to exchange the water bottles between the groups, everyday, the number of mice was recorded, and the mixture was prepared based on the number of mice. […]
structure (smiles),measurement,setting,value
"O=Cc1ccc(CO)o1 [Compound 1, 5-hydroxymethylfuran-2-carboxyaldehyde]",Expression of osteoprotegerin (OPG) in osteoblasts (in words),osteoprotegerin (OPG),increases the expression of osteoprotegerin (OPG)
same,Area of resorption pits compared to control,osteoclasts,about 50%
same,Area of resorption pits compared to control,osteoclasts; listed as compound prepared in Example 1,inhibit bone resorption activity of osteoclasts
same,"Trabecular and cortical bone of tibia, light microscopy",[1],trabecular bone loss was not observed; also recorded: marked increase in the cortical and trabecualr bone; also recorded: no trabecular bone loss
